From patent publication US11806377B2, “Oral use of coriander seed oil for a soothing effect on reactive skin” (Societe d'Exploitation de Produits Pour les Industries …, priority 2018, dated 2023)
Marks after values point to notes of the source that are not given here.

Target: T1, TRPA1 (Homo sapiens, UniProt O75762)
T1 construct: Human sensory neurons were obtained from pluripotent stem cells and cultured in culture plates; endogenous in cells; host or cells: human pluripotent-stem-cell-derived sensory neurons co-cultured with human keratinocytes
Assay: Protection against activation of TRPA1 following AITC stimulation, Fluo-4 AM calcium fluorescence in keratinocyte-sensory neuron co-culture
Format: cell-based
Conditions: for Activation of TRPA1 following stimulation with AITC, fluorescence, Mean +/- sem: human keratinocyte-neuron co-culture, 1 mM AITC, 6 replicates, 3 minutes
Experimental: The in vitro example described here relates to the reduction in the activation of the receptor TRPA1, involved in the induction of sensations of itching/irritation/scratching/pain of the skin following certain stimulations.
Protection Against Activation of TRPA1 (Neuron Experts Service)
Human sensory neurons were obtained from pluripotent stem cells and cultured in culture plates. Human keratinocytes were grown and then seeded above the neurons.
After 19 days of co-culture at 37° C. in a humid atmosphere under 5% CO2, the test products or the positive reference, HC030031 (C18H21N5O3), at 10 μM, and also the fluorescent probe Fluo-4 AM, were added to the co-culture. The Fluo-4 AM probe makes it possible to follow the rapid kinetics of the variation of the intracellular calcium concentration by measuring in real time its fluorescence intensity, and the calcium flux is associated with activation of TRPA1.
After 30 minutes of incubation, the culture medium was removed and the cultures were washed and then reincubated with the test products. Immediately afterwards, they were placed under an inverted microscope and observed in epifluorescence. […] Five seconds after starting the recording, the neurons were stimulated with 10^-3 M AITC (allyl isothiocyanate).
The experiments were carried out in 6 replicates. The fluorescence was analyzed for 3 minutes.
The fluorescence values were expressed as means+/−sem [standard error of the mean=standard deviation/root (number of values)].
For each condition, the percentages of stimulation and of protection were calculated as follows: % stimulation=100×[mean(condition)]/[mean(cells stimulated with AITC)] % protection=100×[mean(condition)−mean(cells stimulated with AITC)]/[mean(unstressed cells)−mean(cells stimulated with AITC)].
Statistical analysis was performed by a one-way ANOVA test with a significance threshold set at 5%, by comparing the conditions in pairs. A difference between the efficacy of two products was considered: • significant if p<0.05; • “at the limit of significance” if 0.05≤p<0.1; • and not significant if p>0.1.

[1] = HC030031 10 μM, coriander seed oil 0.001%

T1 sequence (O75762 whole entry): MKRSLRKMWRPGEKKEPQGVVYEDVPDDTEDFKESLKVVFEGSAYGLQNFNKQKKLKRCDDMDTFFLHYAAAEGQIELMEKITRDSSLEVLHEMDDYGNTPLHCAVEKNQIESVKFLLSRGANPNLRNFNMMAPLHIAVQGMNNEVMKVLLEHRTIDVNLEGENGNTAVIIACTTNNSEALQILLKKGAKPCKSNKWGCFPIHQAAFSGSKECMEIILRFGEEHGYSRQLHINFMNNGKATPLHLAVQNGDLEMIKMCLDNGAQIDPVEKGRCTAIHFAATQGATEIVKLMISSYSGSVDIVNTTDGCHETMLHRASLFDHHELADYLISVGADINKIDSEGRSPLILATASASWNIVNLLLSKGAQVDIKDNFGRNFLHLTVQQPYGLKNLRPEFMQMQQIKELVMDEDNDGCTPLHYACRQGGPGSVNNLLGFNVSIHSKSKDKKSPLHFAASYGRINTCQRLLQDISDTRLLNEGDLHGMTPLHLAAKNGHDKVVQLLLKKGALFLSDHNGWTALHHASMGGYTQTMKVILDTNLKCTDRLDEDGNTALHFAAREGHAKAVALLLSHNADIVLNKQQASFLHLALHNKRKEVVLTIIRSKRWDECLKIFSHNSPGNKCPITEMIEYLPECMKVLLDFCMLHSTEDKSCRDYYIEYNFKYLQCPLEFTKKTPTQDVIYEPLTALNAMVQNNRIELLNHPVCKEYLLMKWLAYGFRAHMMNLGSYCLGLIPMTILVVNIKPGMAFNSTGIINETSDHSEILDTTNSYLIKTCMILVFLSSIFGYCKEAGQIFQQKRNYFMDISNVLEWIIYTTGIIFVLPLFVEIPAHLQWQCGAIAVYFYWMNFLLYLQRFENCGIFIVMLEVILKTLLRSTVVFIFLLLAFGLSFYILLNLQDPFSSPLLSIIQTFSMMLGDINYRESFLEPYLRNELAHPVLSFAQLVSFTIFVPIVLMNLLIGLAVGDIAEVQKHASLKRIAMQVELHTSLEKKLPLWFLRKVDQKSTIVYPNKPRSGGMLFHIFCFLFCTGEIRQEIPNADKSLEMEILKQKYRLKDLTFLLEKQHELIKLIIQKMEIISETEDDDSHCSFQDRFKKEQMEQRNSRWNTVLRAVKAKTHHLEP

Compound	Activation of TRPA1 following stimulation with AITC, fluorescence, Mean +/- sem [1]	increase in the activation of TRPA1 vs non-stimulated cells (keratinocyte-neuron co-culture, AITC stimulation) [%]	reduction of the activation of TRPA1 (AITC-stimulated keratinocyte-neuron co-culture, coriander seed oil 0.001%) [%]	% protection (against 1 mM AITC stimulation, HC030031 10 μM, coriander seed oil 0.001%) [%]	% stimulation (relative to cells stimulated with 1 mM AITC, HC030031 10 μM, coriander seed oil 0.001%) [%]
C=CCN=C=S [AITC, allyl isothiocyanate]	34035 +/− 1910*** AU	585	–	–	–
CC(C)c1ccc(NC(=O)Cn2cnc3c2c(=O)n(C)c(=O)n3C)cc1 [HC030031]	8537 +/− 553*** AU	–	88	88	25
